For orientation: logP means the decadic logarithm of the partition coefficient of the neutral form, usually between octanol and water. Low readings indicate a more hydrophilic compound, high ones a more lipophilic compound.

The structures appear in SMILES notation.

The data set is described as follows: method code SF, from Suwinski, J.; Salwinska, E.; Watras, J.; Widel, M. (1985). Nitroimidazoles. VI. Partition coefficients and tautomerism of simple nitroimidazoles. 42(4)352-358.
`Cc1nc([N+](=O)[O-])c(N)n1C` gave a logP of -1.1.

Compound `Cn1cnc([N+](=O)[O-])c1` registered a logP of -0.44.

Compound `COc1[nH]c(C)nc1[N+](=O)[O-]` displayed a logP of 0.21.

`COc1c([N+](=O)[O-])ncn1C` showed a logP of 0.19.

Consider `Cc1nc(Br)n(C)c1[N+](=O)[O-]`, for which the logP came to 0.82.

The compound `O=[N+]([O-])c1[nH]cnc1Br` gave a log partition coefficient (logP) of 0.78. The logP values of the last two compounds are within 0.2 log units of each other.

`Cn1cc([N+](=O)[O-])nc1Cl` displayed a logP of 0.19.

As to `Cc1c([N+](=O)[O-])nc(Br)n1C`, the logP worked out at 0.39.

Compound `Cc1[nH]c(Br)nc1[N+](=O)[O-]` gave a lipophilicity (logP) of 0.86.

`Cn1cnc([N+](=O)[O-])c1Br` returned a logP of 0.36.

In turn, `Cc1[nH]cnc1[N+](=O)[O-]` had a logP of 0.23.

In turn, `Cc1c([N+](=O)[O-])ncn1C` gave a lipophilicity (logP) of -0.11.

As to `Cn1ccnc1[N+](=O)[O-]`, the logP is -0.17.

The compound `Cc1nc(Cl)c([N+](=O)[O-])n1C` displayed a logP of 0.87.

On to `Cn1cnc(Cl)c1[N+](=O)[O-]`, for which the logP turned out to be 0.69.

In the case of `COc1c([N+](=O)[O-])nc(C)n1C`, the logP is -0.09.

In turn, `Cc1nc([N+](=O)[O-])c(Cl)n1C` registered a logP of 0.34.

Take `Cc1nc([N+](=O)[O-])c(Cl)[nH]1`: the logP is 1.06.

With `Cn1c([N+](=O)[O-])cnc1Cl`, the log partition coefficient (logP) amounted to 0.62.

`Cn1cncc1[N+](=O)[O-]` returned a logP of 0.13.

In the case of `Cc1nc([N+](=O)[O-])c(Br)n1C`, the logP stood at 0.44.

Turning to `COc1[nH]cnc1[N+](=O)[O-]`, the logP is 0.13.

The compound `Cn1cnc([N+](=O)[O-])c1N` displayed a logP of -1.

Take `O=[N+]([O-])c1ncc[nH]1`: the logP turned out to be 0.11.

Turning to `Cc1nc([N+](=O)[O-])c(Br)[nH]1`, the logP was found to be 1.14.

On to `Cn1cnc(Br)c1[N+](=O)[O-]`, for which the logP was found to be 0.77.

With `Cc1nc(Br)c([N+](=O)[O-])n1C`, the logP came to 0.87. This logP and that of the compound before are within 0.2 log units of each other.

`Cc1nc([N+](=O)[O-])cn1C` showed a logP of -0.24.

Turning to `Cn1cc([N+](=O)[O-])nc1Br`, the logP is 0.33.

The record behind these values is the SangsterLogP compilation.
